# Laboratory results taken from article PMC8237303 (Heliyon, 2021).
# Counter-ions that a name gives are not always drawn. Bridge positions count the residues as written; N and C are the ends. Ends that are not written are not given here.
# How the values were obtained:
# [1] = target: Adenosine A3 receptor (Human) (Homo sapiens, UniProt P0DMS8); experiment: [125I]-AB-MECA binding assay; details: Human recombinant
# [2] = target: Leukotriene D4 receptor (Cavia porcellus, UniProt Q2NNR5); experiment: [3H]-Leukotriene D4 binding assay; details: Guinea pig lung
# [3] = test system: Glutamate receptor (NMDA phencycidine site); experiment: [3H]-; type: binding; details: Rat cerebral cortex
# [4] = target: Dopamine D2 receptor short isoform (Human) (Homo sapiens, UniProt P14416); experiment: [3H]-Spiperone binding assay; details: Human recombinant
# [5] = test system: Glutamate (NMDA polyamine site); experiment: [3H]-Ifenprodil binding assay; details: Rat cerebral cortex
# [6] = test system: Leukotriene B4 receptor; experiment: [3H]-Leukotriene B4 binding assay; details: Guinea pig lung
# [7] = test system: K Channel KATP; experiment: [3H]-Glybenclamide binding assay; details: Rat whole brain
# [8] = target: Adenosine A1 receptor (Human) (Homo sapiens, UniProt P30542); experiment: [3H]8-Cyclopentyl-1,3-dipropylxanthine; type: binding; details: Human recombinant
# [9] = test system: Glycine receptor (Strychnine sensitive); type: binding; details: Rat spinal cord
# [10] = target: GABA A receptor (Picrotoxin site); experiment: [3H]-EBOB binding assay; set-up: species or system Rat
# [11] = test system: Ca channel (Type L, Benzothiazepine); experiment: [3H]-; type: binding; details: Rat cerebral cortex
# [12] = target: Neurokinin NK1 receptor (Human) (Homo sapiens, UniProt P25103); experiment: [125I]-Substance P binding assay; details: Human recombinant
# [13] = test system: Ca channel (Type L, Phenylalkylamine); experiment: [3H]-; type: binding; details: Rat cerebral cortex
# [14] = test system: Glutamate receptor (Kainate); experiment: [3H]-Kainic Acid binding assay; details: Rat whole brain
# [15] = test system: Glutamate receptor (AMPA); experiment: D,L-alpha-[3H]-Amino-3-Hydroxy-Methylisoxazole-4-Propionic Acid; type: binding; details: Rat cerebral cortex
# [16] = test system: Ca Channel (Type L, Dihydropyridine); experiment: [3H]-PN200-110 binding assay; details: Rat cerebral cortex
# [17] = target: Neurokinin NK3 receptor (Human) (Homo sapiens, UniProt P29371); experiment: [125I]-Neurokinin B; type: binding; details: Human recombinant
# [18] = test system: Imidazoline receptor (Central); experiment: [3H]RX 781094; type: binding; details: Rat cerebral cortex
# [19] = target: α1A-Adrenergic receptor (Rattus norvegicus, UniProt P43140); experiment: [3H]-Prazosin binding assay; details: Rat submandibular gland
# [20] = target: α1B-Adrenergic receptor (Rattus norvegicus, UniProt P15823); experiment: [3H]-Prazosin binding assay; details: Rat liver
# [21] = target: Prostanoid EP2 receptor (Human) (Homo sapiens, UniProt P43116); experiment: [3H]-Prostaglandin E2 binding assay; details: Human recombinant
# [22] = test system: GABA A receptor (Benzodiazepine site); experiment: [3H]-Flunitrazepam binding assay; details: Rat whole brain
# [23] = test system: Glutamate receptor (NMDA agonist site); experiment: [3H]-CGP-39653 binding assay; details: Rat cerebral cortex
# [24] = test system: K Channel SkCa; experiment: [125I]-Apamin binding assay; details: Rat whole brain
# [25] = target: Glutamate receptor (NMDAglycine site) (Rattus norvegicus, UniProt P35439); experiment: [3H]-MDL105,519 binding assay; details: Rat cerebral cortex
# [26] = target: T1, CRF1 receptor (Human) (Homo sapiens, UniProt P34998); experiment: [125I]-Corticotropin Releasing Factor; type: binding; details: Human recombinant
# T1 sequence (P34998 24-415): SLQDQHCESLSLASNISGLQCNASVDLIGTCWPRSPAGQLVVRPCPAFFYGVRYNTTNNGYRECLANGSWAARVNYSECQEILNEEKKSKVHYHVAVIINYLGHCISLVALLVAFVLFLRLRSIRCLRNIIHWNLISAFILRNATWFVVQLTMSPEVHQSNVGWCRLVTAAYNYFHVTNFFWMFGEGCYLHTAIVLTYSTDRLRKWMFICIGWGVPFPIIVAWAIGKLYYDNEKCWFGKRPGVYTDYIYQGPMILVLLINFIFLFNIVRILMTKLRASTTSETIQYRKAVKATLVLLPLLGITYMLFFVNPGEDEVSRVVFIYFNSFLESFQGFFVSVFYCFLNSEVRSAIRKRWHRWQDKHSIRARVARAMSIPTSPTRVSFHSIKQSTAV
# [27] = test system: Nicotinic receptor (Human); experiment: [3H]-; type: binding; details: Human receptor (Non-recombinant)
# [28] = test system: GABA A receptor (Agonist site); experiment: [3H]-Muscimol binding assay; details: Rat cerebellum
# [29] = target: Serotonin transporter (Human) (Homo sapiens, UniProt P31645); experiment: [3H]-Imipramine hydrochloride binding assay; details: Human recombinant
# [30] = test system: IP3 receptor; experiment: D-[3H]-Inositol-1,4,5-Triphosphate binding assay; details: Rat cerebellum
# [31] = target: Dopamine transporter (Human) (Homo sapiens, UniProt Q01959); experiment: [3H]-WIN35,428 binding assay; details: Human recombinant
# [32] = test system: Bombesin receptor (Non-selective); experiment: [125I]-Bombesin binding assay; details: Rat whole brain
# [33] = test system: Monoamine transporter; experiment: [3H]-α-Dihydrotetrabenazine binding assay; details: Rabbit platelet
# [34] = target: Opiate δ receptor (Human) (Homo sapiens, UniProt P41143); experiment: [3H]-Naltrindole binding assay; details: Human recombinant
# [35] = target: Glucocorticoid receptor (Human) (Homo sapiens, UniProt P04150); experiment: [3H]-Dexamethasone binding assay; details: Human recombinant
# [36] = test system: PAF receptor; experiment: 1-O-Hexadecyl-[3H]-Platelet Activating Factor; type: binding; details: Rabbit platelet
# Sequence of α1B-Adrenergic receptor (P15823 whole entry): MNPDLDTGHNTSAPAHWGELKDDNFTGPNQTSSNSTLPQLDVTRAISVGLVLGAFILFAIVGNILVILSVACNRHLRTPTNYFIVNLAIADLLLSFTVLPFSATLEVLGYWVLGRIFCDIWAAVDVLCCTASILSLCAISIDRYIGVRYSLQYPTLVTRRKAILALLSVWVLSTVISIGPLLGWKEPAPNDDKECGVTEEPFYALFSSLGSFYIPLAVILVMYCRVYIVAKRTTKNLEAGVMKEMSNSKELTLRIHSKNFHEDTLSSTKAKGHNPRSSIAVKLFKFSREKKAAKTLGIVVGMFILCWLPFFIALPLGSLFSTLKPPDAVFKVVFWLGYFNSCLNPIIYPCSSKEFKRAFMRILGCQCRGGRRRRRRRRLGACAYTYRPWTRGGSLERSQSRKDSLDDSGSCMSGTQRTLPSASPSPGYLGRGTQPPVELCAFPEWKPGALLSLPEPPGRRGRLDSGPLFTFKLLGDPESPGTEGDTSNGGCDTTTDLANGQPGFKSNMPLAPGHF
# Sequence of Serotonin transporter (Human) (P31645 whole entry): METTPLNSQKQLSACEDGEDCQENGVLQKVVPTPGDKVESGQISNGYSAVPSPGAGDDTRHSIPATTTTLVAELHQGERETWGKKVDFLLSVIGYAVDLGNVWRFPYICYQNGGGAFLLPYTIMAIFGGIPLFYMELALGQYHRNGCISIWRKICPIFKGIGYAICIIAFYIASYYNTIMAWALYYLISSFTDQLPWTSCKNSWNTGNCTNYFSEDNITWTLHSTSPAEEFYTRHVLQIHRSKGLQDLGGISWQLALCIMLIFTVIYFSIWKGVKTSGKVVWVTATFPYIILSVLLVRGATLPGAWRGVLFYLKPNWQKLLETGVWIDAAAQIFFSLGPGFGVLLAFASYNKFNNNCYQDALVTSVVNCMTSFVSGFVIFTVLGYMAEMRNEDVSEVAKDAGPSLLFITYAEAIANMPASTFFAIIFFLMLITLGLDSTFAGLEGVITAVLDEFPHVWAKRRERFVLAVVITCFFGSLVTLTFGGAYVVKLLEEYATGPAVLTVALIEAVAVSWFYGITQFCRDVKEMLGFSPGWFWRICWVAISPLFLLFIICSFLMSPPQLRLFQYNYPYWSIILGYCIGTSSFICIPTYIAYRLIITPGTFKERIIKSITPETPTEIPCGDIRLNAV
# Sequence of Dopamine D2 receptor short isoform (Human) (P14416 1-414 isoform P14416-2): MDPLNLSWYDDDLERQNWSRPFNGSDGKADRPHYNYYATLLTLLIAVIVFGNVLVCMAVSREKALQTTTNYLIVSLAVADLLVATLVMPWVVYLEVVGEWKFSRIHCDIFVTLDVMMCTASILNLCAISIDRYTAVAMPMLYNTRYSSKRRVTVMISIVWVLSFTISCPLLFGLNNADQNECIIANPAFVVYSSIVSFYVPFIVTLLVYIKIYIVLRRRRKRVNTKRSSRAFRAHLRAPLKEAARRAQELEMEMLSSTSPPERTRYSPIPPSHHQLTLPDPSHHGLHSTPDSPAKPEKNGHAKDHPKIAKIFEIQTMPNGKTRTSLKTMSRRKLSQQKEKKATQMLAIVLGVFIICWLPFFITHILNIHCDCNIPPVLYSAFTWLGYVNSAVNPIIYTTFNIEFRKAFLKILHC
# Sequence of Glutamate receptor (NMDAglycine site) (P35439 394-800 limits assumed): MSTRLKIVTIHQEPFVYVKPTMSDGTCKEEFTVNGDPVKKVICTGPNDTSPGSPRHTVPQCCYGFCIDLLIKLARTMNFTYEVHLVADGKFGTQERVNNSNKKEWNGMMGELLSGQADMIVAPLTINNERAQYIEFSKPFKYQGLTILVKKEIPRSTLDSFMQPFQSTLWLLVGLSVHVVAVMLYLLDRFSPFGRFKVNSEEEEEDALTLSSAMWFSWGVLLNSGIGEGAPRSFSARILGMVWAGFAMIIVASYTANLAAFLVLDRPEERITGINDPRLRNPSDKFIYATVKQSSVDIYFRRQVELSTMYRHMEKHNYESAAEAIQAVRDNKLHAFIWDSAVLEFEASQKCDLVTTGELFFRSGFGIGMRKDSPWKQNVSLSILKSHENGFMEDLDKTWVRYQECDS
# Sequence of Neurokinin NK1 receptor (Human) (P25103 whole entry): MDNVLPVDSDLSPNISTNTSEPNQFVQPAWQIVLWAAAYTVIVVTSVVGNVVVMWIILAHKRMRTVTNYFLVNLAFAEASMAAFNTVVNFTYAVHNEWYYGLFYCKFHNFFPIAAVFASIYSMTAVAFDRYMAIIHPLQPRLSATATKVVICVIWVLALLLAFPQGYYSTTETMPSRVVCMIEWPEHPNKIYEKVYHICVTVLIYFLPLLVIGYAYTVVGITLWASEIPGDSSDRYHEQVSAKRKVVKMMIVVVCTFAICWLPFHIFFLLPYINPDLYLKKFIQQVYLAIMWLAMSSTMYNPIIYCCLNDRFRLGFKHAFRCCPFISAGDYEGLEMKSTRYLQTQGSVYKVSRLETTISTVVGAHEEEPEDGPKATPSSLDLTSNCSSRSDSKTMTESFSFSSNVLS
# Sequence of Opiate δ receptor (Human) (P41143 whole entry): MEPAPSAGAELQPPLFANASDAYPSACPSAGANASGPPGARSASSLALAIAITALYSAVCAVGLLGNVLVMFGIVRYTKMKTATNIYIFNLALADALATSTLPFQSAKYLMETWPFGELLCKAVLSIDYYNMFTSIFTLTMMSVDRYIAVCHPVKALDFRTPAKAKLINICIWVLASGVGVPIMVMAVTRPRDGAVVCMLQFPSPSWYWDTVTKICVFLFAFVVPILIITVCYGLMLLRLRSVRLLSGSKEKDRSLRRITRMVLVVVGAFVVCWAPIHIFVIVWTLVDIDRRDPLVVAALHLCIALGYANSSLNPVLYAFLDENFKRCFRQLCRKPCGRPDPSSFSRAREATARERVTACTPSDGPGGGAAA
# Sequence of Dopamine transporter (Human) (Q01959 whole entry): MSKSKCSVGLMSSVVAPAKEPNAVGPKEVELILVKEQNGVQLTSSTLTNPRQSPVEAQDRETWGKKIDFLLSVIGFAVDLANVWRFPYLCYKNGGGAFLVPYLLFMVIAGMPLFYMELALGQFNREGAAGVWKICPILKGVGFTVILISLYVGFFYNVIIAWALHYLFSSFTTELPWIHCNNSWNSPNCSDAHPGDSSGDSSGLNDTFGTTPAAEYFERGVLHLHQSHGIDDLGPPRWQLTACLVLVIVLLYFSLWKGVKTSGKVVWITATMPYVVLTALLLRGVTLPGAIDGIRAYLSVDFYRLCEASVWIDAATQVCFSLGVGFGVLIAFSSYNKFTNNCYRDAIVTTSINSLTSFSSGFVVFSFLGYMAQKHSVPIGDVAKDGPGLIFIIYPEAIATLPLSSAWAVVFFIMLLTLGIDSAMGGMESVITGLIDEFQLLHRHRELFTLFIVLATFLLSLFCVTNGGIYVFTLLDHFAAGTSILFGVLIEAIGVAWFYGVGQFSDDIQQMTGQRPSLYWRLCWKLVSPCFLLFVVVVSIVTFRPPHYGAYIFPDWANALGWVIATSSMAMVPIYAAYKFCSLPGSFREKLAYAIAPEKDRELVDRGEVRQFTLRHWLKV
# Sequence of Glucocorticoid receptor (Human) (P04150 whole entry): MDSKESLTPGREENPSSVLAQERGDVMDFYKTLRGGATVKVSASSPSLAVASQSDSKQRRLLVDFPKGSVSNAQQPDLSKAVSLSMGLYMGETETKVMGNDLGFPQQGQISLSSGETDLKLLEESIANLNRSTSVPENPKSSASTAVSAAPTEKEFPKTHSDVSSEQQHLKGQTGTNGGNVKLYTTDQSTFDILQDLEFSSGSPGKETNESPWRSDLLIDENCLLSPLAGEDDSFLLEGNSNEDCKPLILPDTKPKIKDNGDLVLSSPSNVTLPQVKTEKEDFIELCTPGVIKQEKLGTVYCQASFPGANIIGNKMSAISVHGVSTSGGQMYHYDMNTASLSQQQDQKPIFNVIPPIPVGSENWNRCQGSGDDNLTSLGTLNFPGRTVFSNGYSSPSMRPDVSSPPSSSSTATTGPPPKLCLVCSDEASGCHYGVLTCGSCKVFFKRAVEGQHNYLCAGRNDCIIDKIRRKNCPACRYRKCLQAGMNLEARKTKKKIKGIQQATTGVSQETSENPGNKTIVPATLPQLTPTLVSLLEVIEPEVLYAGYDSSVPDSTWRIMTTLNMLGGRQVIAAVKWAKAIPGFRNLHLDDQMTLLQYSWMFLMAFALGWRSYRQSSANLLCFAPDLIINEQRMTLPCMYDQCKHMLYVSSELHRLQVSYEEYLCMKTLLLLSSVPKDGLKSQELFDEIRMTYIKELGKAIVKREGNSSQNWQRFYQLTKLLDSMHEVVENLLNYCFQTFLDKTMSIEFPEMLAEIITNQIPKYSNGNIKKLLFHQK
# Sequence of α1A-Adrenergic receptor (P43140 whole entry): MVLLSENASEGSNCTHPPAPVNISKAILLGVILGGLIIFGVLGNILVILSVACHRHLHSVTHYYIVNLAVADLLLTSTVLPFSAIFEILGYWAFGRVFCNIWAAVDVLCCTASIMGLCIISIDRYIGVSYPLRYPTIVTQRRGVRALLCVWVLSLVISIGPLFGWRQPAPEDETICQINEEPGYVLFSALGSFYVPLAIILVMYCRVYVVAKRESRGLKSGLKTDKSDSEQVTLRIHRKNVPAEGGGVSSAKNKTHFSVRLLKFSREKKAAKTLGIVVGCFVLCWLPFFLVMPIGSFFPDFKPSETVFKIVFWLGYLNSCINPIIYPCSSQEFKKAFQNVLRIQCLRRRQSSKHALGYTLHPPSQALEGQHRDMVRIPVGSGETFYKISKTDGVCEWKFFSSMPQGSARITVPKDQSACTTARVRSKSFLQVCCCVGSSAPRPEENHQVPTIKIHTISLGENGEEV
# Sequence of Leukotriene D4 receptor (Q2NNR5 whole entry): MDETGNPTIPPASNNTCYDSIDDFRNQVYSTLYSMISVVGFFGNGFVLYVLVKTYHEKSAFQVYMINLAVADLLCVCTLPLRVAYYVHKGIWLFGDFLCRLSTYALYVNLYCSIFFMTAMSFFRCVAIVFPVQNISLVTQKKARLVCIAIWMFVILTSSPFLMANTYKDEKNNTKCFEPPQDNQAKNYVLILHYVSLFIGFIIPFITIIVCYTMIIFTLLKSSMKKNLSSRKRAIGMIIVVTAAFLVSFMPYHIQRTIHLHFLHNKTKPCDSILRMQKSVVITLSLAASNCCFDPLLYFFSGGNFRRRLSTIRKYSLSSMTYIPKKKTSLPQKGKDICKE
compound,measurement,setting,value
CNC(=O)[C@H]1O[C@@H](n2cnc3c(NCc4cccc(I)c4)ncnc32)[C@H](O)[C@@H]1O [IB-MECA],Inhibition by a positive substance (%),[1],99.41%
CCCCC/C=C\C\C=C/C=C/C=C/[C@@H](SC[C@H](N)C(=O)NCC(=O)O)[C@@H](O)CCCC(=O)O [Leukotriene D4],Inhibition by a positive substance (%),[2],96.63%
(+)-MK-801 hydrogen maleate,Inhibition by a positive substance (%),[3],100%
CC(C)(C)[C@]1(O)CCN2C[C@H]3c4ccccc4CCc4cccc(c43)[C@@H]2C1 [(+)-Butaclamol hydrochloride],Inhibition by a positive substance (%),[4],94.16%
CC(C(O)c1ccc(O)cc1)N1CCC(Cc2ccccc2)CC1.CC(C(O)c1ccc(O)cc1)N1CCC(Cc2ccccc2)CC1.O=C(O)C(O)C(O)C(=O)O (stereo not drawn) [Ifenprodil tartrate salt],Inhibition by a positive substance (%),[5],99.68%
CCCCC/C=C\C[C@@H](O)/C=C/C=C/C=C\[C@@H](O)CCCC(=O)O [Leukotriene B4],Inhibition by a positive control substance (%),[6],92.71%
COc1ccc(Cl)cc1C(=O)NCCc1ccc(S(=O)(=O)NC(=O)NC2CCCCC2)cc1 [Glibenclamide],Inhibition by a positive substance (%),[7],100%
"CCCn1c(=O)c2[nH]c(C3CCCC3)nc2n(CCC)c1=O [8-Cyclopentyl-1,3-dipropylxanthine]",Inhibition by a positive substance (%),[8],96.61%
O=C1C[C@@H]2OCC=C3CN4CC[C@]56c7ccccc7N1[C@H]5[C@H]2[C@H]3C[C@H]46 [Strychnine],Inhibition by a positive substance (%),[9],98.79%
"C#Cc1ccc(C23OCC(CCC)(CO2)CO3)cc1 [[^3H]-EBOB, [^3H]-ethynylbicycloorthobenzoate]",Kd,"[10]; read-out: Kd (nmol/L), binding of the radio-labeled ligand, 7 concentrations, GABAA (Picrotoxin site)",4.18 nmol/L
COc1ccc([C@@H]2Sc3ccccc3N(CCN(C)C)C(=O)[C@@H]2OC(C)=O)cc1.Cl (relative stereo) [(+)-cis-Diltiazem hydrochloride],Inhibition by a positive substance (%),[11],96.98%
Picrotoxin,Inhibition by a positive control substance (%),[10]; Rat cerebral cortex,94.33%
same,IC50,"[10]; read-out: IC50 for inhibition of the [3H]-EBOB binding, rat cerebral cortex preparation, 7 concentrations, duplicate",0.602 µM
same,Ki,"[10]; read-out: Ki (mol/L), inhibition of the binding of [3H]-EBOB, GABAA (Picrotoxin site), Ki=IC50/(1+[L/Kd])",0.313 µM
"Ic1ccccc1CN[C@@H]1C2CCN(CC2)[C@@H]1C(c1ccccc1)c1ccccc1 [L-703,606 oxalate salt hydrate]",Inhibition by a positive substance (%),[12],99.87%
COc1ccc(CCN(C)CCCC(C#N)(c2cc(OC)c(OC)c(OC)c2)C(C)C)cc1OC.Cl (racemic) [(±)-Methoxyverapamil hydrochloride],Inhibition by a positive control substance (%),[13],100%
C=C(C)[C@H]1CN[C@H](C(=O)O)[C@H]1CC(=O)O.O [Kainic acid monohydrate],Inhibition by a positive substance (%),[14],100%
Cc1o[nH]c(=O)c1C[C@H](N)C(=O)O [(S)-AMPA],Inhibition by a positive substance (%),[15],100%
CCOC(=O)C1=C(C)NC(C)=C(C(=O)OC)C1c1cccc([N+](=O)[O-])c1 (stereo not drawn) [Nitrendipine],Inhibition by a positive substance (%),[16],100%
"Succinyl-[Asp 6, N–Me-Phe 8]-Substance P Fragment 6–11",Inhibition by a positive substance (%),[17],100%
CC(=O)O.N=C(N)N/N=C/c1c(Cl)cccc1Cl [Guanabenz acetate salt],Inhibition by a positive substance (%),[18],100%
COc1cc2nc(N3CCN(C(=O)c4ccco4)CC3)nc(N)c2cc1OC [Prazosin hydrochloride],Inhibition by a positive substance (%),[19],100%
same,Inhibition by a positive substance (%),[20],100%
CCCCC[C@H](O)/C=C/[C@H]1[C@H](O)CC(=O)[C@@H]1C/C=C\CCCC(=O)O [Prostaglandin E2],Inhibition by a positive substance (%),[21],100%
CN1C(=O)CN=C(c2ccccc2)c2cc(Cl)ccc21 [Diazepam],Inhibition by a positive substance (%),[22],100%
Cl.N[C@@H](CCC(=O)O)C(=O)O [L-Glutamic acid hydrochloride],Inhibition by a positive substance (%),[23],100%
"Apamin (CNCKAPETALCARRCQQH-NH2; disulfide 1-11, 3-15; ends not checked; UniProt P01500 28-45, looked up)",Inhibition by a positive substance (%),[24],100%
"O=C(O)/C(=C/c1c(C(=O)O)[nH]c2cc(Cl)cc(Cl)c12)c1ccccc1 [MDL105,519]",Inhibition by a positive substance (%),[25],100%
"Urocortin human (DNPSLSIDLTFHLLRTLLELARTQSQRERAEQNRIIFDSV; ends and bridges not checked; UniProt P55089 83-122, looked up)",Inhibition by a positive substance (%),[26],100%
Cl.Cl.Clc1ccc(C2CC3CCC2N3)cn1.O (racemic) [(±)-Epibatidine dihydrochloride hydrate],Inhibition by a positive substance (%),[27],100%
NCc1cc(=O)[nH]o1 [Muscimol],Inhibition by a positive substance (%),[28],99.04%
CN(C)CCCN1c2ccccc2CCc2ccccc21 [Imipramine hydrochloride],Inhibition by a positive substance (%),[29],96.87%
"O=P([O-])([O-])OC1C(O)C(O)C(OP(=O)([O-])[O-])C(OP(=O)([O-])[O-])C1O.[K+].[K+].[K+].[K+].[K+].[K+] [D-myo-Inositol 1,4,5-trisphosphate potassium salt]",Inhibition by a positive substance (%),[30],100%
Fc1ccc(C(OCCN2CCN(CCCc3ccccc3)CC2)c2ccc(F)cc2)cc1 [GBR12909 dihydrochloride],Inhibition by a positive control substance (%),[31],99.41%
Bombesin acetate hydrate,Inhibition by a positive control substance (%),[32],98.81%
O=C(O)C(O)C(O)C(=O)O.O=C(c1ccc(F)cc1)C1CCN(CCn2c(=O)[nH]c3ccccc3c2=O)CC1 [Ketanserin tartrate salt],Inhibition by a positive substance (%),[33],100%
CS(=O)(=O)O.Oc1ccc2c3c1O[C@H]1c4oc5ccccc5c4C[C@@]4(O)[C@@H](C2)N(CC2CC2)CC[C@]314 [Naltriben methanesulfonate hydrate],Inhibition by a positive substance (%),[34],100%
C[C@@H]1C[C@H]2[C@@H]3CCC4=CC(=O)C=C[C@]4(C)[C@@]3(F)[C@@H](O)C[C@]2(C)[C@@]1(O)C(=O)CO [Dexamethasone],Inhibition by a positive substance (%),[35],99.36%
CCCCCCCCCCCCCCCCOC[C@@H](O)COP(=O)([O-])OCC[N+](C)(C)C [1-O-Palmityl-sn-glycero-3-phosphocholine],Inhibition by a positive substance (%),[36],100%
